Calls of active or inactive are those of the source. The calls are words filed in the database; no cut-off is given here.
Legend:
[1] = Half life in mouse liver microsomes measured upto 40 mins by LC-MS/MS analysis
[2] = Intrinsic clearance in human liver microsomes measured upto 40 mins by LC-MS/MS analysis; type: ADME, Microsome; details: read-out: CLH
[3] = Half life in human liver microsomes measured upto 40 mins by LC-MS/MS analysis; type: ADME, Microsome
[4] = Intrinsic clearance in mouse liver microsomes measured upto 40 mins by LC-MS/MS analysis
Histone deacetylase 1 = Histone deacetylase 1 (Homo sapiens, UniProt Q13547)
Sequence of Histone deacetylase 1 (Q13547 whole entry): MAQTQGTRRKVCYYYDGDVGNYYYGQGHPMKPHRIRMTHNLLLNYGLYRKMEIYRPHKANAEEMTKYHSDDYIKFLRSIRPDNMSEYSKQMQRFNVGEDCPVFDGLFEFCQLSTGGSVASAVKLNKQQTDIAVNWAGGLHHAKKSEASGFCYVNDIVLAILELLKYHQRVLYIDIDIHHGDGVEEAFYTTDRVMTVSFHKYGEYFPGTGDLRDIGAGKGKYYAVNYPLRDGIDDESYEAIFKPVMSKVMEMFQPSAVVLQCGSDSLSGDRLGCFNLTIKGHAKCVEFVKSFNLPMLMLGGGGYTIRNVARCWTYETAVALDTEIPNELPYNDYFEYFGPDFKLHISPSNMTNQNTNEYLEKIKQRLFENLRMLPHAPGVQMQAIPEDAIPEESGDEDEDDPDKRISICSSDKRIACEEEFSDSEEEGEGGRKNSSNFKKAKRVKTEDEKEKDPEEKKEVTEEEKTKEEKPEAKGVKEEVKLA
Description: Inhibition of C-terminal FLAG/His-tagged human recombinant HDAC1 (1 to 482 residues) expressed in baculovirus infected Sf9 cells using ZMAL (Z-Lys(Ac)-AMC) as fluorogenic substrate incubated for 90 mins by fluorescence based assay

[5] = Selective index, ratio of IC50 for human HepG2-A16-CD81EGFP cells to IC50 for antiplasmodial activity against liver stage exo-erythrocytic forms of Plasmodium berghei sporozoites infected in human HepG2-A16-CD81EGFP cells
[6] = target: T1, Protein deacetylase HDAC6 (Homo sapiens, UniProt Q9UBN7); experiment: biochemical
T1 sequence (Q9UBN7 whole entry): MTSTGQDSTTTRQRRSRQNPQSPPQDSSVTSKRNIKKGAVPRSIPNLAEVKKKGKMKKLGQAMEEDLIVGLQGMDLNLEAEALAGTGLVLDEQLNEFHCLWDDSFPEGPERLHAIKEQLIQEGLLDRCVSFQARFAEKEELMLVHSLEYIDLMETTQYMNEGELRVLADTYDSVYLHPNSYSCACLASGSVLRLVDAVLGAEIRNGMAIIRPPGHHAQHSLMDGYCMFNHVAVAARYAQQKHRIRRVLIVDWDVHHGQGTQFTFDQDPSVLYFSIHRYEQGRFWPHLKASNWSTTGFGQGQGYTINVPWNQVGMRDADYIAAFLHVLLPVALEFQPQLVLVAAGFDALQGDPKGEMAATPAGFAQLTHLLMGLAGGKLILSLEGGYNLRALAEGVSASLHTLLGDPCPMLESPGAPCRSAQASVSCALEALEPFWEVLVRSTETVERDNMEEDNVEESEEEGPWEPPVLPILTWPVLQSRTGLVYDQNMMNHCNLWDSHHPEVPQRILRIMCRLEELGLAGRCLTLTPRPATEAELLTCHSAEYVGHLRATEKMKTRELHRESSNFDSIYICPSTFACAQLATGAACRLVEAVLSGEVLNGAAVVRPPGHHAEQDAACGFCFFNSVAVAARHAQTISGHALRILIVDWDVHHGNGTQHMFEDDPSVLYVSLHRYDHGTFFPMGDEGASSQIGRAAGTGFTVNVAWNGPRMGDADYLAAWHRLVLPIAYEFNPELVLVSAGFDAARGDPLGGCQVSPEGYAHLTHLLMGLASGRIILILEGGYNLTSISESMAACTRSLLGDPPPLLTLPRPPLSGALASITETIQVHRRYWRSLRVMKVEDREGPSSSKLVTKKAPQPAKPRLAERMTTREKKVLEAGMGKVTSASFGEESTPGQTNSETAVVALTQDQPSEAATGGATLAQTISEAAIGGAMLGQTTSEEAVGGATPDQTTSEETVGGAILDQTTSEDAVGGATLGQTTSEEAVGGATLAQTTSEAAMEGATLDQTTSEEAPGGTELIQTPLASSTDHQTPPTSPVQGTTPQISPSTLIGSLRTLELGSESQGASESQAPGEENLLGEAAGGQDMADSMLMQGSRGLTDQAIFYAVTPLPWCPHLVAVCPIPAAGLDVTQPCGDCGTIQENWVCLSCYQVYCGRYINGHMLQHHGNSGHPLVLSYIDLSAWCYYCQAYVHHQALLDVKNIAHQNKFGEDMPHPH
Description: Inhibition of N-terminal GST-tagged full length human recombinant HDAC6 expressed in baculovirus infected Sf9 cells using ZMAL (Z-Lys(Ac)-AMC) fluorogenic substrate incubated for 90 mins by fluorescence based assay

HepG2 = experiment: Cytotoxicity against human HepG2-A16-CD81EGFP cells assessed as inhibition of cell growth incubated for 24 hrs followed by medium transfer and incubation in multimode plate for 48 hrs by CellTiterGlo reagent based luminescence assay
Plasmodium falciparum [7] = experiment: microbe, parasite or virus in culture; type: functional, organism-based; details: 3D7, Erythrocyte
[8] = Selectivity index, ratio of IC50 for cytotoxicity against human HepG2-A16-CD81EGFP cells to IC50 for antiplasmodial activity against drug-sensitive asexual intraerythrocytic stage of Plasmodium falciparum 3D7 infected in human O+ erythrocytes
Plasmodium berghei [9] = experiment: microbe, parasite or virus in culture; type: functional, organism-based
Plasmodium berghei [10] = experiment: Antimalarial activity against Plasmodium berghei QIMR infected in BALB/c mouse assessed as reduction in peripheral blood parasitemia at 25 mg/kg, po bid for 4 days starting from 2 hrs post infection and measured on 4 to 6 days post-infection by Giemsa staining based microscopic analysis relative to control; type: functional; details: time 4-6 day
[11] = system: Plasmodium falciparum 3D7; experiment: Inhibition of HDAC in trophozite-stage of Plasmodium falciparum 3D7 infected in erythrocytes assessed as hyperacetylation of histone H4 at lysine residue at 5 x IC50 incubated for 3 hrs by western blot analysis; type: cell-based
Plasmodium falciparum [12] = experiment: Antiplasmodial activity against multidrug-resistant asexual intraerythrocytic stage of Plasmodium falciparum Dd2 assessed as inhibition of parasite growth incubated for 48 hrs followed by addition of [3H]hypoxanthine for 24 hrs by [3H]hypoxanthine incorporation assay; type: functional, organism-based
Plasmodium falciparum [13] = experiment: Resistance index, ratio of IC50 for antiplasmodial activity against multidrug-resistant asexual intraerythrocytic stage of Plasmodium falciparum Dd2 to IC50 for antiplasmodial activity against drug-sensitive asexual intraerythrocytic stage of Plasmodium falciparum 3D7 infected in human O+ erythrocytes by [3H]-hypoxanthine incorporation assay; type: functional

| Compound | half-life at 40 min ([1]; liver microsomes) [min] | microsomal CLint [2] [µL/min/mg] | half-life [3] [min] | microsomal CLint at 40 min [4] [µL/min/mg] | IC50 (Histone deacetylase 1) [µM] | selectivity ratio [5] | IC50 [6] [µM] | IC50 (HepG2) [µM] | IC50 (Plasmodium falciparum [7]) [µM] | selectivity ratio [8] | IC50 (Plasmodium berghei [9]) [µM] | inhibition in vivo at 25 mg/kg (Plasmodium berghei [10]) [%] | inhibition [11] | IC50 (Plasmodium falciparum [12]) [µM] | Ratio IC50 (Plasmodium falciparum [13]) | half-life at 40 min ([1]; microsomes) [min] |
| --- | --- | --- | --- | --- | --- | --- | --- | --- | --- | --- | --- | --- | --- | --- | --- | --- |
| CC(C)c1ccc(NC(=O)CN(Cc2ccc(C(=O)NO)cc2)C(=O)Cc2ccccc2)cc1 | 44.3 | 72 | 23.5 | 38 | – | – | – | – | – | – | – | – | – | – | – | – |
| Cn1c(=O)c2c(ncn2C)n(C)c1=O [CAFFEINE] | – | 2 | 1030 | – | – | – | – | – | – | – | – | – | – | – | – | – |
| CN(C)c1ccc(C(=O)N(Cc2ccc(C(=O)NO)cc2)C(C)(C)C(=O)NCc2ccccc2)cc1 | – | – | – | – | 0.44 | > 12 | 0.07 | > 50 | 0.161 | > 311 | 4.27 | – | – | – | – | – |
| Cc1ccc(C(=O)N(CC(=O)NC2CCCCC2)Cc2ccc(C(=O)NO)cc2)c(C)c1 | 17.9 | 139 | 12.2 | 94 | 0.26 | 139 | 0.04 | 8.33 | 0.008 | 1040 | 0.06 | 31 | inactive | 0.004 | 0.5 | – |
| O=C(CN(Cc1ccc(C(=O)NO)cc1)C(=O)Cc1ccccc1)NC1CCCCC1 | – | – | – | – | 2.43 | > 61 | 0.05 | > 50 | 0.281 | > 178 | 0.82 | – | – | – | – | – |
| Cc1cc(C)cc(C(=O)N(CC(=O)N(C)C)Cc2ccc(C(=O)NO)cc2)c1 | – | – | – | – | 8 | – | 0.23 | > 50 | 1.04 | > 48 | 8.25 | – | – | – | – | – |
| O=C(CCCCCCC(=O)Nc1ccccc1)NO [VORINOSTAT] | – | – | – | – | – | – | – | 7.6 | – | – | – | – | – | – | – | – |
| CC(C)c1ccc(C(=O)N(Cc2ccc(C(=O)NO)cc2)C(C)(C)C(=O)NC2CCCCC2)cc1 | 55.6 | 144 | 11.7 | 30 | 0.97 | > 10 | 0.27 | > 50 | 0.101 | > 495 | 4.9 | 0.5 | inactive | 0.033 | 0.3 | – |
| O=C(CN(Cc1ccc(C(=O)NO)cc1)C(=O)c1cccc2ccccc12)NCc1ccccc1 | 19.3 | 41 | 41.4 | 87 | 0.13 | 20 | 0.01 | 12.8 | 0.034 | 376 | 0.63 | 25.9 | Active | 0.014 | 0.4 | – |
| CC(C)c1ccc(C(=O)N(Cc2ccc(C(=O)NO)cc2)C(C)(C)C(=O)NCc2ccccc2)cc1 | – | – | – | – | 0.28 | > 6 | 0.06 | > 50 | 0.142 | > 352 | 8.67 | – | – | – | – | – |
| CC(C)c1ccc(CC(=O)N(CC(=O)NCc2ccccc2)Cc2ccc(C(=O)NO)cc2)cc1 | – | – | – | – | 0.78 | 11 | 0.02 | 30 | 0.076 | 395 | 2.7 | – | Active | 0.023 | 0.3 | – |
| Cc1ccccc1C(=O)N(CC(=O)NC12CC3CC(CC(C3)C1)C2)Cc1ccc(C(=O)NO)cc1 | – | – | – | – | 0.1 | 24 | 0.03 | 13 | 0.127 | 102 | 0.54 | – | – | – | – | – |
| CC(C)NCC(O)COc1cccc2ccccc12 (centres undefined) [PROPRANOLOL] | – | – | – | – | – | – | – | – | – | – | – | – | – | – | – | 54.3 |
| CC(C)c1ccc(CC(=O)N(CC(=O)NC2CCCCC2)Cc2ccc(C(=O)NO)cc2)cc1 | – | – | – | – | 2.03 | 12 | 0.04 | 25.1 | 0.215 | 117 | 2.02 | – | – | – | – | – |
| CC(C)c1ccc(C(=O)N(CC(=O)NC23CC4CC(CC(C4)C2)C3)Cc2ccc(C(=O)NO)cc2)cc1 | – | – | – | – | 0.3 | 13 | 0.25 | 4.32 | 0.028 | 154 | 0.34 | – | – | 0.006 | 0.2 | – |
| Cc1cc(C)cc(C(=O)N(CC(=O)N2CCCCC2)Cc2ccc(C(=O)NO)cc2)c1 | – | – | – | – | 4.05 | 5 | 0.13 | 35 | 0.509 | 69 | 6.56 | – | – | – | – | – |
| O=C(O)Cc1ccccc1Nc1c(Cl)cccc1Cl [DICLOFENAC] | – | 248 | 6.8 | – | – | – | – | – | – | – | – | – | – | – | – | – |
| O=C(CN(Cc1ccc(C(=O)NO)cc1)C(=O)Cc1ccccc1)NCc1ccccc1 | – | – | – | – | 0.6 | 24 | 0.03 | 21.9 | 0.213 | 103 | 0.92 | – | – | – | – | – |

Source: ChEMBL document CHEMBL4811220, “Investigation of the in vitro and in vivo efficacy of peptoid-based HDAC inhibitors with dual-stage antiplasmodial activity” (Eur J Med Chem, 2021)
